pIC50: −log10 of the molar value.

Our source for the IC50 values is patent US20160052937A1, “Tetrahydroimidazo[1,5-d][1,4]oxazepine compound” (Eisai R&D Management Co., Ltd., priority 2014, published 2016).

The target of this experiment is T1, human metabotropic glutamate receptor 2 (mGluR2) (Homo sapiens, UniProt Q14416).
T1 construct: expressed in transfected cells; co-expressing human SLC1A3), cell membrane fraction
T1 sequence (Q14416 19-872): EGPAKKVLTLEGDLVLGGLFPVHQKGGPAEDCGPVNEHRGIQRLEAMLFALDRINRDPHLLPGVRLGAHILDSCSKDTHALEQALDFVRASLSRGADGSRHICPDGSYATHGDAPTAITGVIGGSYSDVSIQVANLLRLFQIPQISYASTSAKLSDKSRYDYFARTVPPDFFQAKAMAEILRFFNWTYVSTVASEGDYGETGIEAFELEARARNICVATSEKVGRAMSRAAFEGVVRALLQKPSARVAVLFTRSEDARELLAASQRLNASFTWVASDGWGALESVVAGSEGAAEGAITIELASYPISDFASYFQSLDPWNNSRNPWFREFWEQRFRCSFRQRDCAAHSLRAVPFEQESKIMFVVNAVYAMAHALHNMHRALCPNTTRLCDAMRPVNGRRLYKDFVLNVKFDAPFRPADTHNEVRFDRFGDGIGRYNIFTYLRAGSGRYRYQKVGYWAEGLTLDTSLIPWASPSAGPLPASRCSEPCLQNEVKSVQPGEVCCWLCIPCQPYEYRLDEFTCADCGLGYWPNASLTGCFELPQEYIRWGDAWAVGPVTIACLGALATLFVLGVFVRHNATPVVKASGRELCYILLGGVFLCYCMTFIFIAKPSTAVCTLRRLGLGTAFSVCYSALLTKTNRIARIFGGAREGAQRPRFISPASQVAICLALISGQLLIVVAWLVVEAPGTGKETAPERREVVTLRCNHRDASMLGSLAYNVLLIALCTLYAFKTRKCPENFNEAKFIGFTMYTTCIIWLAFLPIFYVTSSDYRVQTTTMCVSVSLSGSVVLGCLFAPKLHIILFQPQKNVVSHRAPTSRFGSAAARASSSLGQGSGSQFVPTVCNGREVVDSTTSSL
The experiment can be described thus: [35S]GTPγS binding assay (Affinity to mGluR2). Format: biochemical. As to conditions: cell membrane fraction of HEK293 cells stably expressing human mGluR2; glutamic acid 10 μM. The protocol:
(Preparation of Cell Membrane Fraction of HEK293 Cells Stably Expressing Human Metabotropic Glutamate Receptor 2 (mGluR2))
HEK293 cells stably expressing human mGluR2 and human glutamate transporter SLC1A3 were cultured in a Dulbecco's modified Eagle's medium with 10% fetal bovine serum (50 units/mL of penicillin, 50 μg/mL of streptomycin, 60 μg/mL of geneticin, 400 μg/mL of hygromycin B and 2 mM of glutamine) at 37° C. under 5% CO2. Confluent cell cultures were washed twice with PBS(−), and then scraped off with a cell scraper, and subjected to centrifugal separation at 4° C. and 1500 rpm for 5 minutes for collecting cells. The centrifuged sediment (cell pellet) was homogenized in a 20 mM HEPES buffer containing 10 mM EDTA (pH 7.4) by using sonicator and centrifuged at 4° C. and 1500×g for 30 minutes. The supernatant (soluble fraction) was subjected to the centrifugal separation at 4° C. and 40,000×g for 30 minutes, and thus, insoluble fraction was obtained. After additional centrifugally washing the obtained fraction with 20 mM HEPES buffer containing 10 mM EDTA (pH 7.4), the pellet was centrifugally suspended with a 20 mM HEPES buffer containing 0.1 mM EDTA, and the cell membrane fraction was obtained by the centrifugal separation at 4° C. and 40,000×g for 30 minutes. The thus obtained cell membrane fraction was suspended in a 20 mM HEPES buffer containing 0.1 mM EDTA in a protein concentration of 3 mg/mL, which was stored at −80° C.
([^35S]GTPγS binding assay)
The frozen cell membrane fraction prepared as described above was thawed before use, and the resultant was diluted with a buffer for a binding assay (final concentrations: 20 mM HEPES, 100 mM NaCl, 1 mM MgCl2, 3 μM GDP, 300 μg/mL saponin, 0.1% BSA). The compound of each example was added to a cell membrane fraction containing 1.8 to 3 μg/assay of membrane protein on a plate, followed by incubation at room temperature for 30 minutes. Thereafter, with glutamic acid (in a final concentration of 10 μM) added thereto, incubation was performed at room temperature for 15 minutes, and thereafter, [^35S]GTPγS (in a final concentration of 0.8 kBq) and 588 μg WGA-SPA beads were added thereto, followed by incubation at room temperature for 1 hour. After the incubation, the plate was subjected to the centrifugal separation at 2,500 rpm and room temperature, and then, membrane cell binding radioactivity was measured with a top count.
A [^35S]GTPγS binding amount obtained by performing the above-described reaction in the absence of glutamic acid was defined as nonspecific binding, and a difference from a [^35S]GTPγS binding amount obtained in the presence of glutamic acid was defined as specific binding. On the basis of ratios of inhibiting the specific binding at various concentrations of the compounds of the respective examples, inhibition curves were obtained. Concentrations of the compounds of the respective examples at which the specific [^35S]GTPγS binding amount was suppressed by 50% (IC50 values) were calculated on the basis of the inhibition curves and shown in Table 3.
Background: GTPγS is a poorly hydrolysed GTP analogue; its binding reports G protein activation.
The term pIC50 denotes the negative decadic logarithm of the IC50, by convention in mol/L. A high value points to a small IC50. As for `CCOc1ccc(-c2nc(-c3ccc(S(=O)(=O)NC4CC4)cc3)c3n2C[C@@H](C)OCC3)cc1` [Example 32], the pIC50 is 8.41. As for `CCOc1ccc(-c2nc(-c3ccc(S(=O)(=O)NC4CCC4)cc3)c3n2C[C@@H](C)OCC3)cc1` [Example 33], the figure is 8.52; as for `CCOc1ccc(-c2nc(-c3ccc(S(=O)(=O)NC)cc3)c3n2C[C@@H](C)OCC3)cc1` [Example 34], 8.15. As for `CCNS(=O)(=O)c1ccc(-c2nc(-c3ccc(OCC)cc3)n3c2CCO[C@H](C)C3)cc1` [Example 35], the figure is 8.74; as for `CCOc1ccc(-c2nc(-c3ccc(S(=O)(=O)NC4(C)CCC4)cc3)c3n2C[C@@H](C)OCC3)cc1` [Example 36], 8.89. Consider `C[C@@H]1Cn2c(-c3ccc(F)cc3)nc(-c3ccc(S(=O)(=O)NC4CCC4)cc3)c2CCO1` [Example 37], for which the pIC50 is 8.64. As to `O=S(=O)(NC1CCC1)c1ccc(-c2nc(-c3ccc(F)cc3)n3c2CCO[C@H](CF)C3)cc1` [Example 38], the pIC50 was 8.66. As for `CC1(NS(=O)(=O)c2ccc(-c3nc(-c4ccc(F)cc4)n4c3CCO[C@H](CF)C4)cc2)CCC1` [Example 39], the figure is 9.05. Then `CC(C)NS(=O)(=O)c1ccc(-c2nc(-c3ccc(F)cc3)n3c2CCO[C@H](CF)C3)cc1` [Example 40], with 8.59.

Regarding `CC(C)(C)NS(=O)(=O)c1ccc(-c2nc(-c3ccc(F)cc3)n3c2CCO[C@H](CF)C3)cc1` [Example 41], the pIC50 was 8.68. Then `CCNS(=O)(=O)c1ccc(-c2nc(-c3ccc(F)cc3)n3c2CCO[C@H](CF)C3)cc1` [Example 42], with 8.01.

For the molecule `COc1ccc(-c2nc(-c3ccc(S(=O)(=O)NC(C)C)cc3)c3n2C[C@@H](CF)OCC3)cc1` [Example 43], the pIC50 was 8.51. For `COc1ccc(-c2nc(-c3ccc(S(=O)(=O)NC4CCC4)cc3)c3n2C[C@@H](CF)OCC3)cc1` [Example 44], the pIC50 was 8.64.

Turning to `COc1ccc(-c2nc(-c3ccc(S(=O)(=O)NC4(C)CCC4)cc3)c3n2C[C@@H](CF)OCC3)cc1` [Example 45], the pIC50 is 8.66. Consider `CCNS(=O)(=O)c1ccc(-c2nc(-c3ccc(OC)cc3)n3c2CCO[C@H](CF)C3)cc1` [Example 46], for which the pIC50 is 8.22. Then `COc1ccc(-c2nc(-c3ccc(S(=O)(=O)NC4CC4)cc3)c3n2C[C@@H](CF)OCC3)cc1` [Example 47], with 8.20; and `CCOc1ccc(-c2nc(-c3ccc(S(=O)(=O)NC4CC4)cc3)c3n2C[C@@H](CF)OCC3)cc1` [Example 49], with 7.95; and `CCNS(=O)(=O)c1ccc(-c2nc(-c3ccc(OCC)cc3)n3c2CCO[C@H](CF)C3)cc1` [Example 50], with 8.02.

Take `CC(C)NS(=O)(=O)c1ccc(-c2nc(-c3ccc(OCF)cc3)n3c2CCO[C@H](CF)C3)cc1` [Example 51]: the pIC50 is 7.92. As for `CC(C)(C)NS(=O)(=O)c1ccc(-c2nc(-c3ccc(OCF)cc3)n3c2CCO[C@H](CF)C3)cc1` [Example 52], the figure is 8.39.

Molecule `CC(C)NS(=O)(=O)c1ccc(-c2nc(-c3ccc(OC(F)F)cc3)n3c2CCO[C@H](CF)C3)cc1` [Example 53] had a pIC50 of 8.33. Then `CC(C)(C)NS(=O)(=O)c1ccc(-c2nc(-c3ccc(OC(F)F)cc3)n3c2CCO[C@H](CF)C3)cc1` [Example 54], with 8.31; and `CCOc1ccc(-c2nc(-c3ccc(S(=O)(=O)NC(C)(C)C)cc3)c3n2C[C@@H](CF)OCC3)cc1` [Example 55], with 8.54. As for `CCNS(=O)(=O)c1ccc(-c2nc(-c3ccc(OCF)cc3)n3c2CCO[C@H](CF)C3)cc1` [Example 56], the figure is 7.97. `CC1(NS(=O)(=O)c2ccc(-c3nc(-c4ccc(OCF)cc4)n4c3CCO[C@H](CF)C4)cc2)CCC1` [Example 57] had a pIC50 of 8.39. As for `O=S(=O)(NC1CCC1)c1ccc(-c2nc(-c3ccc(OCF)cc3)n3c2CCO[C@H](CF)C3)cc1` [Example 58], the figure is 7.82.
